The values below come from patent publication US8343983B2, “Substituted pyrazolo-pyrimidine compounds” (ArQule, Inc., priority 2009, dated 2013).

Read-outs that look alike come from different tables or passages of the source.

The test system of the test is cancer cells. The experiment in a line: MTS assay: inhibition of cell growth (formazan absorbance at 492 nm after 72 hours with test compound). In kind it is cell-based. The settings on record: inhibition class. As to the method: Cells were maintained at 37° C., 5% CO2 in DMEM media supplemented with 1% fetal bovine serum, penicillin/streptomycin and fungizone (Invitrogen). Cells were seeded into 96-well tissue culture plates at 3000 per well and cultured at 37° C. for 18 hours. Test compounds were dissolved and diluted to 300× in DMSO then diluted 1:40 in DMEM. Cells were incubated with test compounds for 72 hours followed by incubation with tetrazolium compound (3-(4,5-dimethylthiazol-2-yl)-5-(3-carboxymethoxyphenyl)-2-(4-sulfophenyl)-2H-tetrazolium, inner salt; MTS) and the electron coupling reagent, phenazine methosulfate (PMS) for 4 hours. […] The ability of compounds to inhibit cell growth in this assay is correlated with the reduction of dehydrogenase enzyme activity found in metabolically active cells. The measurement of the absorbance of the formazan was assessed using an ENVISION™ (Perkin Elmer) microplate reader at 492 nm. The calculated IC50 value is the concentration of the test compound that causes a 50% decrease in the absorbance. […] A=>79% inhibition, B=>50 to 79% inhibition, C=<50% inhibition.

Setting [1] is: Homo sapiens, DLD-1 cells, read-out: DLD-1, MTS 72 hours at 10 uM.
Where [2] appears, read: Homo sapiens, KATO III cells, read-out: KATO III, MTS 72 hours at 10 uM.
Where [3] appears, read: Homo sapiens, MDA-MB-231 cells, read-out: MDA-MB-231, MTS 72 hours at 10 uM.
[4] abbreviates: Homo sapiens, NCI-H1299 cells, read-out: NCI-H1299, MTS 72 hours at 10 uM.
The mark [5] stands for this setting: Homo sapiens, PC-3 cells, read-out: PC-3, MTS 72 hours at 10 uM.
Setting [6] is: PACA-2 cells, read-out: PACA-2, MTS 72 hours at 10 uM.

With `COc1cc(OC)nc(CN2CCN(c3nc4c5c(n[nH]c5n3)CCN4Cc3ccccc3)CC2)n1` [Compound 20, 6-benzyl-4-{4-[(4,6-dimethoxypyrimidin-2-yl)methyl]piperazin-1-yl}-2,6,7,8-tetrahydro-1,2,3,5,6-pentaazaacenaphthylene], the inhibition at 10 µM under setting [1] was less than 50%; the inhibition at 10 µM under setting [2] was less than 50%; the inhibition at 10 µM under setting [3] is less than 50%; the inhibition at 10 µM under setting [4] is less than 50%; the inhibition at 10 µM under setting [5] is less than 50%; the inhibition at 10 µM under setting [6] is less than 50%.

For `Cn1c(CNc2nc3c4c(n[nH]c4n2)CCN3Cc2ccccc2)nc2ccccc21` [Compound 21, 6-benzyl-N-[(1-methyl-1H-benzimidazol-2-yl)methyl]-2,6,7,8-tetrahydro-1,2,3,5,6-pentaazaacenaphthylen-4-amine], the inhibition at 10 µM reads like this: under setting [1], less than 50%; under setting [2], 50 to 79%; under setting [3], less than 50%; under setting [4], less than 50%; under setting [5], less than 50%; under setting [6], less than 50%.

For `Fc1ccccc1CCNc1nc2c3c(n[nH]c3n1)CCN2Cc1ccccc1` [Compound 22, 6-benzyl-N-[2-(2-fluorophenyl)ethyl]-2,6,7,8-tetrahydro-1,2,3,5,6-pentaazaacenaphthylen-4-amine], the inhibition at 10 µM is less than 50% under setting [1]; less than 50% under setting [2]; less than 50% under setting [3]; less than 50% under setting [4]; less than 50% under setting [5]; less than 50% under setting [6].

Turning to `CN(C)CCN(C)c1nc2c3c(n[nH]c3n1)CCN2Cc1ccccc1` [Compound 23, N-(6-benzyl-2,6,7,8-tetrahydro-1,2,3,5,6-pentaazaacenaphthylen-4-yl)-N,N′,N′-trimethylethane-1,2-diamine], the inhibition at 10 µM under setting [1] is less than 50%; the inhibition at 10 µM under setting [2] is less than 50%; the inhibition at 10 µM under setting [3] was 50 to 79%; the inhibition at 10 µM under setting [4] was less than 50%; the inhibition at 10 µM under setting [5] was greater than 79%; the inhibition at 10 µM under setting [6] is less than 50%.

`COc1ccc(CN2CCN(c3nc4c5c(n[nH]c5n3)CCN4Cc3ccccc3)CC2)cc1` [Compound 24, 6-benzyl-4-[4-(4-methoxybenzyl)piperazin-1-yl]-2,6,7,8-tetrahydro-1,2,3,5,6-pentaazaacenaphthylene]: the inhibition at 10 µM under setting [1] was less than 50%; the inhibition at 10 µM under setting [2] is less than 50%; the inhibition at 10 µM under setting [3] was less than 50%; the inhibition at 10 µM under setting [4] was less than 50%; the inhibition at 10 µM under setting [5] was less than 50%; the inhibition at 10 µM under setting [6] was less than 50%.

Regarding `c1ccc(CN2CCc3n[nH]c4nc(NCCCN5CCOCC5)nc2c34)cc1` [Compound 25, 6-benzyl-N-(3-morpholin-4-ylpropyl)-2,6,7,8-tetrahydro-1,2,3,5,6-pentaazaacenaphthylen-4-amine], the inhibition at 10 µM runs as follows: under setting [1], less than 50%; under setting [2], less than 50%; under setting [3], less than 50%; under setting [4], less than 50%; under setting [5], less than 50%; under setting [6], less than 50%.

For `c1ccc(CN2CCc3n[nH]c4nc(NCCc5c[nH]c6ccccc56)nc2c34)cc1` [Compound 26, 6-benzyl-N-[2-(1H-indol-3-yl)ethyl]-2,6,7,8-tetrahydro-1,2,3,5,6-pentaazaacenaphthylen-4-amine], the inhibition at 10 µM reads like this: under setting [1], less than 50%; under setting [2], less than 50%; under setting [3], less than 50%; under setting [4], less than 50%; under setting [5], less than 50%; under setting [6], less than 50%.

Turning to `Cc1cccc(N2CCN(c3nc4c5c(n[nH]c5n3)CCN4Cc3ccccc3)CC2)n1` [Compound 27, 6-benzyl-4-[4-(6-methylpyridin-2-yl)piperazin-1-yl]-2,6,7,8-tetrahydro-1,2,3,5,6-pentaazaacenaphthylene], the inhibition at 10 µM was less than 50% under setting [1]; less than 50% under setting [2]; less than 50% under setting [3]; less than 50% under setting [4]; less than 50% under setting [5]; less than 50% under setting [6].

With `Brc1cccc(CCNc2nc3c4c(n[nH]c4n2)CCN3Cc2ccccc2)c1` [Compound 28, 6-benzyl-N-[2-(3-bromophenyl)ethyl]-2,6,7,8-tetrahydro-1,2,3,5,6-pentaazaacenaphthylen-4-amine], the inhibition at 10 µM was less than 50% under setting [1]; greater than 79% under setting [2]; greater than 79% under setting [3]; greater than 79% under setting [4]; greater than 79% under setting [5]; less than 50% under setting [6].

As for `c1ccc(CN2CCc3n[nH]c4nc(N5CCN(Cc6ccccn6)CC5)nc2c34)cc1` [Compound 29, 6-benzyl-4-[4-(pyridin-2-ylmethyl)piperazin-1-yl]-2,6,7,8-tetrahydro-1,2,3,5,6-pentaazaacenaphthylene], the inhibition at 10 µM reads like this: under setting [1], less than 50%; under setting [2], less than 50%; under setting [3], less than 50%; under setting [4], less than 50%; under setting [5], less than 50%; under setting [6], less than 50%.

Consider `c1ccc(CN2CCc3n[nH]c4nc(NCCc5cccnc5)nc2c34)cc1` [Compound 30, 6-benzyl-N-(2-pyridin-3-ylethyl)-2,6,7,8-tetrahydro-1,2,3,5,6-pentaazaacenaphthylen-4-amine], for which the inhibition at 10 µM was 50 to 79% under setting [1]; 50 to 79% under setting [2]; 50 to 79% under setting [3]; less than 50% under setting [4]; less than 50% under setting [5]; less than 50% under setting [6].

On to `c1ccc(CN2CCc3n[nH]c4nc(NCc5ccc6c(c5)OCO6)nc2c34)cc1` [Compound 31, N-(1,3-benzodioxol-5-ylmethyl)-6-benzyl-2,6,7,8-tetrahydro-1,2,3,5,6-pentaazaacenaphthylen-4-amine], for which the inhibition at 10 µM reads like this: under setting [1], less than 50%; under setting [2], less than 50%; under setting [3], less than 50%; under setting [4], less than 50%; under setting [5], less than 50%; under setting [6], less than 50%.

With `COc1ccc(CCNc2nc3c4c(n[nH]c4n2)CCN3Cc2ccccc2)cc1` [Compound 32, 6-benzyl-N-[2-(4-methoxyphenyl)ethyl]-2,6,7,8-tetrahydro-1,2,3,5,6-pentaazaacenaphthylen-4-amine], the inhibition at 10 µM under setting [1] is greater than 79%; the inhibition at 10 µM under setting [2] was greater than 79%; the inhibition at 10 µM under setting [3] is greater than 79%; the inhibition at 10 µM under setting [4] is greater than 79%; the inhibition at 10 µM under setting [5] is greater than 79%; the inhibition at 10 µM under setting [6] was greater than 79%.

With `c1ccc(CN2CCN(CCNc3nc4c5c(n[nH]c5n3)CCN4Cc3ccccc3)CC2)cc1` [Compound 33, 6-benzyl-N-[2-(4-benzylpiperazin-1-yl)ethyl]-2,6,7,8-tetrahydro-1,2,3,5,6-pentaazaacenaphthylen-4-amine], the inhibition at 10 µM under setting [1] is less than 50%; the inhibition at 10 µM under setting [2] is less than 50%; the inhibition at 10 µM under setting [3] was less than 50%; the inhibition at 10 µM under setting [4] was less than 50%; the inhibition at 10 µM under setting [5] is less than 50%; the inhibition at 10 µM under setting [6] was less than 50%.

As to `c1ccc(CN2CCc3n[nH]c4nc(NCCOc5ccccc5)nc2c34)cc1` [Compound 34, 6-benzyl-N-(2-phenoxyethyl)-2,6,7,8-tetrahydro-1,2,3,5,6-pentaazaacenaphthylen-4-amine], the inhibition at 10 µM is, setting by setting: under setting [1], less than 50%; under setting [2], less than 50%; under setting [3], 50 to 79%; under setting [4], less than 50%; under setting [5], less than 50%; under setting [6], 50 to 79%.

With `Clc1ccccc1CCNc1nc2c3c(n[nH]c3n1)CCN2Cc1ccccc1` [Compound 35, 6-benzyl-N-[2-(2-chlorophenyl)ethyl]-2,6,7,8-tetrahydro-1,2,3,5,6-pentaazaacenaphthylen-4-amine], the inhibition at 10 µM is less than 50% under setting [1]; less than 50% under setting [2]; 50 to 79% under setting [3]; less than 50% under setting [4]; less than 50% under setting [5]; less than 50% under setting [6].

For `COc1cccc(CCNc2nc3c4c(n[nH]c4n2)CCN3Cc2ccccc2)c1` [Compound 36, 6-benzyl-N-[2-(3-methoxyphenyl)ethyl]-2,6,7,8-tetrahydro-1,2,3,5,6-pentaazaacenaphthylen-4-amine], the inhibition at 10 µM under setting [1] is less than 50%; the inhibition at 10 µM under setting [2] is less than 50%; the inhibition at 10 µM under setting [3] is less than 50%; the inhibition at 10 µM under setting [4] is less than 50%; the inhibition at 10 µM under setting [5] is less than 50%; the inhibition at 10 µM under setting [6] was less than 50%.

As for `c1ccc(CNc2nc3c4c(n[nH]c4n2)CCN3Cc2ccccc2)cc1` [Compound 37, N,6-dibenzyl-2,6,7,8-tetrahydro-1,2,3,5,6-pentaazaacenaphthylen-4-amine], the inhibition at 10 µM reads like this: under setting [1], less than 50%; under setting [2], less than 50%; under setting [3], less than 50%; under setting [4], less than 50%; under setting [5], less than 50%; under setting [6], less than 50%.
